Results reported in patent publication US8574563B2 (Bristol-Myers Squibb Company, priority 2006, dated 2013).
pEC50: −log10 of the molar value.

Tested on: HCV 1b-377-neo replicon cells
Assay: HCV replicon assay, HCV 1b-377-neo replicon cells (1b FRET)
Format: cell-based, Hepatitis C virus genotype 1b
Details: Hepatitis C virus, HCV 1b-377-neo replicon cells; HCV 1b genotype; read-out: EC50 range against HCV 1b (Table 2, Range)
Outline: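 Compounds were tested in genotype 1b subgenomic replicon cells carrying a neomycin marker, alongside a matched replicon line with an NS5A Y2065H substitution that confers resistance to a reference NS5A inhibitor.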

SMILES	pEC50
COC(=O)NCC(=O)N1CC2(CC2)C[C@H]1c1nc(-c2ccc(-c3ccc(-c4c[nH]c([C@@H]5CC6(CC6)CN5C(=O)CNC(=O)OC)n4)cc3)cc2)c[nH]1 [Example M146, methyl (2-((6S)-6-(4-(4′-(2-((6S)-5-(((methoxycarbonyl)amino)acetyl)-5-azaspiro[2.4]hept-6-yl)-1H-imidazol-4-yl)-4-biphenylyl)-1H-imidazol-2-yl)-5-azaspiro[2.4]hept-5-yl)-2-oxoethyl)carbamate]	9.00 to 12.00
COC(=O)N[C@@H](C)C(=O)N1CC2(CC2)C[C@H]1c1nc(-c2ccc(-c3ccc(-c4c[nH]c([C@@H]5CC6(CC6)CN5C(=O)[C@H](C)NC(=O)OC)n4)cc3)cc2)c[nH]1 [Example M147, methyl ((1S)-2-((6S)-6-(4-(4′-(2-((6S)-5-(N-(methoxycarbonyl)-L-alanyl)-5-azaspiro[2.4]hept-6-yl)-1H-imidazol-4-yl)-4-biphenylyl)-1H-imidazol-2-yl)-5-azaspiro[2.4]hept-5-yl)-1-methyl-2-oxoethyl)carbamate]	9.00 to 12.00
CC[C@H](NC(=O)OC)C(=O)N1CC2(CC2)C[C@H]1c1nc(-c2ccc(-c3ccc(-c4c[nH]c([C@@H]5CC6(CC6)CN5C(=O)[C@H](CC)NC(=O)OC)n4)cc3)cc2)c[nH]1 [Example M148, dimethyl (4,4′-biphenyldiylbis(1H-imidazole-4,2-diyl(6S)-5-azaspiro[2.4]heptane-6,5-diyl((2S)-1-oxo-1,2-butanediyl)))biscarbamate]	9.00 to 12.00
COC(=O)N[C@@H](C(=O)N1CC2(CC2)C[C@H]1c1nc(-c2ccc(-c3ccc(-c4c[nH]c([C@@H]5CC6(CC6)CN5C(=O)[C@H](NC(=O)OC)C(C)C)n4)cc3)cc2)c[nH]1)C(C)C [Example M149, methyl ((1R)-1-(((6S)-6-(4-(4′-(2-((6S)-5-((2R)-2-((methoxycarbonyl)amino)-3-methylbutanoyl)-5-azaspiro[2.4]hept-6-yl)-1H-imidazol-4-yl)-4-biphenylyl)-1H-imidazol-2-yl)-5-azaspiro[2.4]hept-5-yl)carbonyl)-2-methylpropyl)carbamate]	7.00 to 9.00
COC(=O)N[C@@H](C(=O)N1CC2(CC2)C[C@H]1c1nc(-c2ccc(-c3ccc(-c4c[nH]c([C@@H]5CC6(CC6)CN5C(=O)[C@H](NC(=O)OC)c5ccccc5)n4)cc3)cc2)c[nH]1)c1ccccc1 [Example M150, dimethyl (4,4′-biphenyldiylbis(1H-imidazole-4,2-diyl(6S)-5-azaspiro[2.4]heptane-6,5-diyl((1R)-2-oxo-1-phenyl-2,1-ethanediyl)))biscarbamate]	9.00 to 12.00
COC(=O)N[C@H](C(=O)N1[C@@H](C)CC[C@H]1c1ncc(-c2ccc(-c3ccc(-c4cnc([C@@H]5CC[C@H](C)N5C(=O)[C@@H](NC(=O)OC)C(C)C)[nH]4)cc3)cc2)[nH]1)C(C)C [Example M151, methyl ((1S)-1-(((2S,5S)-2-(4-(4′-(2-((2S,5S)-1-((2S)-2-((methoxycarbonyl)amino)-3-methylbutanoyl)-5-methyl-2-pyrrolidinyl)-1H-imidazol-4-yl)-4-biphenylyl)-1H-imidazol-2-yl)-5-methyl-1-pyrrolidinyl)carbonyl)-2-methylpropyl)carbamate]	9.00 to 12.00
COC(=O)N[C@@H](C(=O)N1[C@@H](C)CC[C@H]1c1nc(-c2ccc(-c3ccc(-c4c[nH]c([C@@H]5CC[C@H](C)N5C(=O)[C@H](NC(=O)OC)c5ccccc5)n4)cc3)cc2)c[nH]1)c1ccccc1 [Example M153, dimethyl (4,4′-biphenyldiylbis(1H-imidazole-4,2-diyl((2S,5S)-5-methyl-2,1-pyrrolidinediyl)((1R)-2-oxo-1-phenyl-2,1-ethanediyl)))biscarbamate]	9.00 to 12.00
CC[C@H](NC(=O)OC)C(=O)N1[C@@H](C)CC[C@H]1c1nc(-c2ccc(-c3ccc(-c4c[nH]c([C@@H]5CC[C@H](C)N5C(=O)[C@H](CC)NC(=O)OC)n4)cc3)cc2)c[nH]1 [Example M154, dimethyl (4,4′-biphenyldiylbis(1H-imidazole-4,2-diyl((2S,5S)-5-methyl-2,1-pyrrolidinediyl)((2S)-1-oxo-1,2-butanediyl)))biscarbamate]	9.00 to 12.00
COC(=O)NCC(=O)N1[C@@H](C)CC[C@H]1c1nc(-c2ccc(-c3ccc(-c4c[nH]c([C@@H]5CC[C@H](C)N5C(=O)CNC(=O)OC)n4)cc3)cc2)c[nH]1 [Example M155, methyl (2-((2S,5S)-2-(4-(4′-(2-((2S,5S)-1-(((methoxycarbonyl)amino)acetyl)-5-methyl-2-pyrrolidinyl)-1H-imidazol-4-yl)-4-biphenylyl)-1H-imidazol-2-yl)-5-methyl-1-pyrrolidinyl)-2-oxoethyl)carbamate]	7.00 to 9.00
COC(=O)NC(C)(C)C(=O)N1[C@@H](C)CC[C@H]1c1nc(-c2ccc(-c3ccc(-c4c[nH]c([C@@H]5CC[C@H](C)N5C(=O)C(C)(C)NC(=O)OC)n4)cc3)cc2)c[nH]1 [Example M156, methyl (2-((2S,5S)-2-(4-(4′-(2-((2S,5S)-1-(2-((methoxycarbonyl)amino)-2-methylpropanoyl)-5-methyl-2-pyrrolidinyl)-1H-imidazol-4-yl)-4-biphenylyl)-1H-imidazol-2-yl)-5-methyl-1-pyrrolidinyl)-1,1-dimethyl-2-oxoethyl)carbamate]	7.00 to 9.00
COC(=O)N[C@@H](C)C(=O)N1[C@@H](C)CC[C@H]1c1nc(-c2ccc(-c3ccc(-c4c[nH]c([C@@H]5CC[C@H](C)N5C(=O)[C@H](C)NC(=O)OC)n4)cc3)cc2)c[nH]1 [Example M157, methyl ((1S)-2-((2S,5S)-2-(4-(4′-(2-((2S,5S)-1-(N-(methoxycarbonyl)-L-alanyl)-5-methyl-2-pyrrolidinyl)-1H-imidazol-4-yl)-4-biphenylyl)-1H-imidazol-2-yl)-5-methyl-1-pyrrolidinyl)-1-methyl-2-oxoethyl)carbamate]	9.00 to 12.00
CC(C)CC(=O)N1[C@@H](C)CC[C@H]1c1nc(-c2ccc(-c3ccc(-c4c[nH]c([C@@H]5CC[C@H](C)N5C(=O)CC(C)C)n4)cc3)cc2)c[nH]1 [Example M158, 4,4′-(4,4′-biphenyldiyl)bis(2-((2S,5S)-5-methyl-1-(3-methylbutanoyl)-2-pyrrolidinyl)-1H-imidazole)]	7.00 to 9.00
C[C@H]1CC[C@@H](c2nc(-c3ccc(-c4ccc(-c5c[nH]c([C@@H]6CC[C@H](C)N6C(=O)Cc6ccccc6)n5)cc4)cc3)c[nH]2)N1C(=O)Cc1ccccc1 [Example M159, 4,4′-(4,4′-biphenyldiyl)bis(2-((2S,5S)-5-methyl-1-(phenylacetyl)-2-pyrrolidinyl)-1H-imidazole)]	9.00 to 12.00
CC(C)[C@@H](O)C(=O)N1[C@@H](C)CC[C@H]1c1nc(-c2ccc(-c3ccc(-c4c[nH]c([C@@H]5CC[C@H](C)N5C(=O)[C@H](O)C(C)C)n4)cc3)cc2)c[nH]1 [Example M160, (2R,2′R)-1,1′-(4,4′-biphenyldiylbis(1H-imidazole-4,2-diyl((2S,5S)-5-methyl-2,1-pyrrolidinediyl)))bis(3-methyl-1-oxo-2-butanol)]	7.00 to 9.00
CC(C)[C@H](O)C(=O)N1[C@@H](C)CC[C@H]1c1nc(-c2ccc(-c3ccc(-c4c[nH]c([C@@H]5CC[C@H](C)N5C(=O)[C@@H](O)C(C)C)n4)cc3)cc2)c[nH]1 [Example M161, (2S,2′S)-1,1′-(4,4′-biphenyldiylbis(1H-imidazole-4,2-diyl((2S,5S)-5-methyl-2,1-pyrrolidinediyl)))bis(3-methyl-1-oxo-2-butanol)]	7.00 to 9.00
